Experimental data from patent US7795252B2, “Rapamycin analogues and the uses thereof in the treatment of neurological, proliferative, and inflammatory disorders” (Pfizer Inc., priority 2004, dated 2010).
Read-outs that look alike come from different tables or passages of the source.

Columns and labels:
[1] = system: Dissociated cortical neuron cultures; assay: cortical neuron assay (neurite outgrowth); type: cell-based; settings: Cortical neurone, rat E15 cortical neurons, compound for 72 hours, read-out: EC50 in cortical neuron assays
Experimental: Dissociated cortical neuron cultures were prepared as previously described (Pong et al., 2001). Briefly, embryonic day 15 rat fetuses were collected and dissected in ice-cold PBS. Dissected cortices were pooled together and transferred to an enzymatic dissociation medium containing papain. After 30 minutes, the tissue was mechanically triturated with a fire-polished glass Pasteur pipette. Single-cell suspensions in complete media were seeded on poly-L-ornithine and laminin coated 96-well plates. After 24 hours, cultures were treated with various concentrations of compound for 72 hours. The cultures were then fixed and stained with an anti-tubulin primary antibody (TUJ-1) and a fluorescent-tagged secondary antibody. Neurite outgrowth was determined by using the Enhanced Neurite Outgrowth (ENO) algorithm with the Cellomics ArrayScan and expressed as average neurite length or total neurite length per cell.

[2] = system: Mesencephalic dopaminergic neuron cultures; assay: dopaminergic (3H-dopamine) uptake assay after MPP+ exposure; type: cell-based; settings: rat E15 mesencephalic dopaminergic neurons, read-out: EC50 in dopaminergic uptake assays
Experimental: Mesencephalic dopaminergic neuron cultures were prepared as described in Pong et al., J. Neurochem. 69: 986-994, 1997, which is incorporated herein by reference in its entirety. Embryonic day 15 (E15) rat fetuses were collected and dissected in ice-cold phosphate-buffered saline (PBS). The ventral piece of tissue compromising the mesencephalic dopaminergic region was dissected out. Dissected pieces of tissue were pooled together and transferred to an enzymatic dissociation medium containing 20 IU/mL papain in Earle's balanced salt solution (Worthington Biochemical, Freehold, N.J., USA) and incubated for 60 minutes at 37° C. After enzymatic dissociation, the papain solution was aspirated and the tissue mechanically triturated with a fire-polished glass Pasteur pipette in complete medium (equal volumes of minimum essential medium (MEM) and F-12 nutrient mixture (GibcoBRL) supplemented with 0.1 mg/mL apotransferrin and 2.5 μg/mL insulin) containing 2,000 IU/mL DNase and 10 mg/mL ovomucoid protease inhibitor.
For dopamine uptake experiments, single-cell suspensions in complete media were seeded on poly-L-ornithine and laminin coated 24-well plates. The cultures were maintained for seven days prior to experimentation. Cultures were pretreated with various concentrations of the compound for 24 hours, then exposed to 10 mM MPP+ for 1 hour. Following the 1 hour incubation, media was exchanged three times and fresh compound was added for an additional 48 hours.
After 48 hours growth of mesencephalic dopaminergic neuron cultures following MPP+ exposure, high-affinity 3H-dopamine uptake was performed using a modified method described by Prochiantz et al., Nature 293: 570-572, 1981, which is incorporated herein by reference. Cultures were washed with pre-warmed PBS containing 5.6 mM glucose and 1 mM ascorbic acid. Cultures were then incubated for 15 minutes at 37° C. with 50 nM 3H-dopamine (31 Ci/mmol, DuPont-NEN, Wilmington, Del., USA). The cultures were washed twice with buffer and lysed with 0.5 N NaOH. The lysate was transferred to a scintillation vial containing Ultima Gold scintillation cocktail and radioactivity was determined with a liquid scintillation counter. Alternatively, culture lysates can be washed twice with buffer, incubated for 2 hours at room temperature with Optiphase Supermix scintillation cocktail (Wallac Scintillation Products, Gaithersburg, Md., USA), and radioactivity measured with a liquid scintillation counter.

[3] = system: Spinal cord neuron cultures; assay: spinal cord neuron assay; type: cell-based; settings: rat E15 spinal cord neurons, compound for 72 h, read-out: EC50 in spinal cord neuron assays
Experimental: Spinal cord neuron cultures were prepared from embryonic day 15 (E15) rat embryos (Sprague-Dawley, Charles River Laboratories, Wilmington, Mass.). The embryos were collected and their spinal cords were removed in ice-cold phosphate-buffered saline (PBS) without Ca^2+ and Mg^2+. Dissected pieces of spinal cord tissue were pooled together and transferred to an enzymatic dissociation media containing 20 IU/mL papain in Earle's balanced salt solution (Worthington Biochemical, Freehold, N.J.) and incubated for 30 minutes at 37° C. After enzymatic dissociation, the papain solution was aspirated and the tissue mechanically triturated with a fire-polished Pasteur pipette in complete media [Neurobasal Medium with B-27 supplement (Gibco, Grand Island, N.Y.), 100 IU/mL penicillin, 100 μg/mL streptomycin, 3.3 μg/mL aphidicolin, 0.5 mM glutamate] containing 2,000 IU/mL DNase and 10-mg/mL ovomucoid protease inhibitor. Single-cell suspensions in complete media were plated on pre-coated poly-L-ornithine/laminin 96-well plates (Becton-Dickinson, Bedford, Mass.) at a density of 1.0×10^4 cells/well. Spinal cord neurons were maintained for 24 h then exposed to vehicle or various concentrations of compound for 72 h.

rats following pMCAO = assay: Permanent occlusion of middle cerebral artery (pMCAO), behavioral deficit scoring; type: in vivo, rat; settings: I.V. administration (10 mg/kg) following pMCAO
Experimental: Adult male Wistar rats (Charles River, Wilmington, Mass.) 270-300 g were anesthetized with 3% isoflurane in 70% nitrous oxide and 30% oxygen through a nose cone. Temperature was maintained at 37° C. throughout the surgery using a heating lamp. Permanent occlusion of MCAO was induced by electro cauterization of the distal portion of the MCA (via a craniotomy) with a 90 min ligation of both carotid arteries to interrupt collateral circulation (Chen S T, Hsu C Y, Hogan E L, Maricq H Balentine J D (1986) A model of focal ischemic stroke in the rat: reproducible extensive cortical infarction. Stroke 17:738-743). Compound was administered 10 mg/kg i.v. 1.5, 5.5, 24, 48, and 72 hours post ischemia. Rats were kept for 21 day for long-term functional recovery evaluation. […] Rats extending both forelimbs toward the table were scored as 0, flexing contralateral limb toward the body and/or rotating the contralateral shoulder and limb medially were scored as 1, and rolling up the body toward the contralateral side and attempting to grasp the tail were scored as 2. […] Rats retracting hind limb back on bench top immediately were scored as 0, delaying (>2 seconds) were scored as 1, and unable to retract hind limb were score as 2. […]

human CD4+ T cells [4] = assay: Anti-CD3/-CD28 stimulation and IL-2 re-stimulation assay; type: cell-based
Experimental: (§1) In the following assays, human CD4+ T cells were purified by negative selection from peripheral blood lymphocytes using RosetteSep as per manufacture's instructions (StemCell Technologies, Inc. Vancouver, British Columbia).
Tosyl-activated magnetic microspheres (Dynal, Great Neck, N.Y.) were coated with anti-CD3 Ab (1 μg/10^7 microspheres), and anti-CD28Ab (0.5 μg/10^7 microspheres) as described in Blair et al. J. Immunol., 160:12, 1998. Murine IgG was used to saturate the binding capacity of the microspheres (total protein=5 μg/10^7 microspheres). Protein-coated microspheres were added to purified CD4+ T cells (2×10^6 cells/mL, ratio 1 bead: 1 cell) and activated for 72 hours in RPMI, 10% fetal calf serum, 2 mM glutamine media. Cells were harvested, washed, and cultured overnight in fresh media and re-stimulated with IL-2 as described in Bennett et al., J. Immunol. 170:711, 2003. Briefly, overnight rested cells were recounted, plated (10^5 cells/well) in flat-bottomed 96 well microtiter plates and stimulated with 1 ng/mL human IL-2 (R&D Systems, Minneapolis, Minn.) in the presence of increasing concentrations of compound. Seventy-two hours after culture re-stimulation, plates were pulsed with 1 μCi/well tritiated thymidine and incubated for a 6-16 hour period.

human CD4+ T cells [5] = assay: PMA/ionomycin activation assay; type: cell-based; settings: CD4+ T cells stimulated with PMA and ionomycin, tritiated thymidine incorporation, read-out: EC50, inhibition of proliferation
Experimental: as §1
Proliferation of the compounds was determined using this assay. CD4+ T cells (5×10^5 cells/well) were plated in flat bottomed 96 well microtiter plates in RPMI, 10% fetal calf serum, 2 mM glutamine media and stimulated with PMA (10 ng/mL) and ionomycin (200 ng/mL) in the presence of increasing concentration of compound. Seventy-two hours after activation, 100 μL of culture media was collected for IL-2 determination, an additional 100 μL fresh media was added to each well and cultures labeled with tritiated thymidine (1 μCi/well) for 6 hours. Cultures were harvested and tritiated thymidine incorporation (count per minute, CPM) assessed using a Trilux (Perkin Elmer, Shelton, Conn.). IL-2 production was determined using an ELISA as per manufacture's instructions (R&D Systems, Minneapolis, Minn.).

| Compound | EC50 ([2]; Neuron) [nM] | EC50 [3] [nM] | EC50 [1] [nM] | further results |
| --- | --- | --- | --- | --- |
| CO[C@H]1C[C@@H]2CC[C@@H](C)[C@@](O)(O2)C(=O)C(=O)N2CCCC[C@H]2C(=O)O[C@H]([C@H](C)C[C@@H]2CC[C@@H](OC(=O)C(C)(CO)CO)[C@H](OC)C2)CC(=O)[C@H](C)/C=C(\C)[C@@H](O)[C@@H](OC)C(=O)[C@H](C)C[C@H](C)/C=C/C=C/C=C/1C [CCI-779, reference compound] | > 1000 |  | > 1000 |  |
| CO[C@H]1C[C@@H]2CC[C@@H](C)[C@@](O)(O2)C(=O)C(=O)N2CCCC[C@H]2C(=O)O[C@H]([C@H](C)C[C@@H]2CC[C@@H](O)[C@H](OC)C2)CC(=O)[C@H](C)/C=C(\C)[C@@H](O)[C@@H](OC)C(=O)[C@H](C)C[C@H](C)[C@@H]2CC[C@H](/C=C/1C)ON2c1ccccc1 [Example 2, 9,27-dihydroxy-3-{2-[4-hydroxy-3-methoxycyclohexyl]-1-methylethyl}-10,21-dimethoxy-6,8,12,14,20,26-hexamethyl-37-phenyl-4,9,10,12,13,14,15,16,17,18,21,22,23,24,25,26,27,32,33,34,34a-henicosahydro-3H-23,27-epoxy-18,15-(epoxyimino)pyrido[2,1-c][1,4]oxazacyclohentriacontine-1,5,11,28,29(6H,31H)-pentone] |  | < 1000 | < 1000 | behavior deficit scoring (rats following pMCAO): statistically significant reduction |
| CO[C@H]1C[C@@H]2CC[C@@H](C)[C@@](O)(O2)C(=O)C(=O)N2CCCC[C@H]2C(=O)O[C@H]([C@H](C)C[C@@H]2CC[C@@H](O)[C@H](OC)C2)CC(=O)[C@H](C)/C=C(\C)[C@@H](O)[C@@H](OC)C(=O)[C@H](C)C[C@H](C)C2C=CC(/C=C/1C)ON2c1c(Cl)cccc1Cl [Example 3, 37-(2,6-dichlorophenyl)-9,27-dihydroxy-3-{2-[4-hydroxy-3-methoxycyclohexyl]-1-methylethyl}-10,21-dimethoxy-6,8,12,14,20,26-hexamethyl-4,9,10,12,13,14,15,18,21,22,23,24,25,26,27,32,33,34,34a-nonadecahydro-3H-23,27-epoxy-18,15-(epoxyimino)pyrido[2,1-c][1,4]oxazacyclohentriacontine-1,5,11,28,29(6H,31H)-pentone] |  | < 1000 | < 1000 | IC50 (human CD4+ T cells [4]; CD4+ T cells activated with anti-CD3/anti-CD28, re-stimulated with 1 ng/mL human IL-2, read-out: IC50, inhibition of IL-2 production): < 1000 nM; IL-2 production compared with rapamycin and CCI-779 (human CD4+ T cells [4]; CD4+ T cells, IL-2 re-stimulation): commensurate; EC50 (human CD4+ T cells [5]): 200 to 4900 nM |
| Rapamycin phenyltriazolinedione |  |  |  | EC50 [2]: < 1000 nM |

The next lines start with results.

| EC50 ([2]; Neuron) [nM] | EC50 [3] [nM] | Compound | EC50 [1] [nM] | further results |
| --- | --- | --- | --- | --- |
| < 1000 | < 1000 | CO[C@H]1C[C@@H]2CC[C@@H](C)[C@@](O)(O2)C(=O)C(=O)N2CCCC[C@H]2C(=O)O[C@H]([C@H](C)C[C@@H]2CC[C@@H](OC(=O)C(C)(C)Cc3ccccn3)[C@H](OC)C2)CC(=O)[C@H](C)/C=C(\C)[C@@H](O)[C@@H](OC)C(=O)[C@H](C)C[C@H](C)C2C=CC(/C=C/1C)ON2c1ccccc1 [Example 6, 9,27-dihydroxy-3-{-2-[4-hydroxy-3-methoxycyclohexyl]-1-methylethyl}-10,21-dimethoxy-6,8,12,14,20,26-hexamethyl-37-phenyl-4,9,10,12,13,14,15,18,21,22,23,24,25,26,27,32,33,34,34a-nonadecahydro-3H-23,27-epoxy-18,15-(epoxyimino)pyrido[2,1-c][1,4]oxazacyclohentriacontine-1,5,11,28,29(6H,31H)-pentone ester with-2,2-dimethyl-3-(pyridin-2-yl)-propionic acid] |  |  |
| > 1000 |  | CO[C@H]1C[C@@H]2CC[C@@H](C)[C@@](O)(O2)C(=O)C(=O)N2CCCC[C@H]2C(=O)O[C@H]([C@H](C)C[C@@H]2CC[C@@H](O)[C@H](OC)C2)CC(=O)[C@H](C)/C=C(\C)[C@@H](O)[C@@H](OC)C(=O)[C@H](C)C[C@H](C)/C=C/C=C/C=C/1C [rapamycin] | > 1000 |  |
